Where only a bound is given, the exact number is not on record here.

The experiment relates to 8×TBD luciferase reporter (YAP) in HEK293T cells. Nature of the experiment: YAP Reporter Assay (8×TBD firefly luciferase reporter). The class given is cell-based. To be noted: Homo sapiens, HEK-293T; HEK293T cells stably transfected with 8×TBD luciferase reporter and pRLTK; 24-hr incubation; firefly luciferase activity; read-out: Firefly Luciferase IC50. In a few lines: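 Stably transfected HEK293T cells (8×TBD firefly luciferase plus TK-renilla) were dosed with 10-point 1:3 dilutions from 3 μM final, quadruplicates, for 24 h at 37 °C. Dual-Glo read firefly and renilla luminescence; IC50 and maximal inhibition reported separately for each.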
For orientation: In a reporter assay the amount or activity of a reporter protein is the signal.
For orientation: IC50 means the concentration needed to halve the response being measured. Consider `CCN1CCC([C@@H](C)NC(=O)c2ccc3c(Oc4ccc(C(F)(F)F)cc4)cccc3c2)CC1` [Compound 155, (R)-N-(1-(1-ethylpiperidin-4-yl)ethyl)-5-(4-(trifluoromethyl)phenoxy)-2-naphthamide], for which the half-inhibitory concentration (IC50) was in the range of 100 to 1000 nM. The result for `CC(C)N1CCC([C@@H](C)NC(=O)c2ccc3c(Oc4ccc(C(F)(F)F)cc4)cccc3c2)CC1` [Compound 156, (R)-N-(1-(1-isopropylpiperidin-4-yl)ethyl)-5-(4-(trifluoromethyl)phenoxy)-2-naphthamide] reads 100 to 1000 nM. The result for `C[C@@H](NC(=O)c1ccc2c(Oc3ccc(C(F)(F)F)cc3)cccc2c1)C1CCN(C)CC1` [Compound 157, (R)-N-(1-(1-methylpiperidin-4-yl)ethyl)-5-(4-(trifluoromethyl)phenoxy)-2-naphthamide] reads < 100 nM. Consider `C[C@@H](NC(=O)c1ccc2c(Oc3ccc(C(F)(F)F)cc3)cccc2c1)C1CCN(CC(F)F)CC1` [Compound 162, (R)-N-(1-(1-(2,2-difluoroethyl)piperidin-4-yl)ethyl)-5-(4-(trifluoromethyl)phenoxy)-2-naphthamide], for which the half-maximal inhibitory concentration (IC50) fell in the range of 100 to 1000 nM.

Values taken from patent US11420935B2, “Bicyclic compounds” (Vivace Therapeutics, Inc., priority 2019, dated 2022).
